From PubChem BioAssay AID330 (DTP/NCI, 2004)
“And” between values parts separate entries of the source, which are not always exact repeats. Identical values can stand only once. Inconclusive results and toxic doses are left out.

System: P388 leukemia ip, CD2F1 mice, survival T/C
Assay: NCI In Vivo Anticancer Drug Screen. Data for tumor model P388 Leukemia (intraperitoneal) in CD2F1 (CDF1) mice
Settings: endpoint: median survival time, higher = longer survival
Summary of the method: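 Mice carrying the transplanted tumor received test compound or vehicle. Survival was recorded in each group, and the value is the treated-group measurement divided by that of the vehicle-treated control group.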

[1] = dose: 100.0 mg/kg/injection, schedule: Q01DX009 (ip), vehicle: other
[2] = dose: 200.0 mg/kg/injection, schedule: Q01DX009 (ip), vehicle: other
[3] = dose: 100.0 mg/kg/injection, schedule: Q01DX001 (ip), vehicle: saline with Tween-80
[4] = dose: 200.0 mg/kg/injection, schedule: Q01DX001 (ip), vehicle: saline with Tween-80
[5] = dose: 400.0 mg/kg/injection, schedule: Q01DX001 (ip), vehicle: saline with Tween-80
[6] = dose: 12.5 mg/kg/injection, schedule: Q01DX009 (ip), vehicle: Klucel (hydroxypropylcellulose) (HPC)
[7] = dose: 50.0 mg/kg/injection, schedule: Q01DX009 (ip), vehicle: saline with Tween-80
[8] = dose: 100.0 mg/kg/injection, schedule: Q01DX009 (ip), vehicle: saline with Tween-80
[9] = dose: 100.0 mg/kg/injection, schedule: Q01DX009 (ip), vehicle: saline
[10] = dose: 200.0 mg/kg/injection, schedule: Q01DX009 (ip), vehicle: saline
[11] = dose: 200.0 mg/kg/injection, schedule: Q01DX009 (ip), vehicle: saline with Tween-80
[12] = dose: 100.0 mg/kg/injection, schedule: Q04DX003 (ip), vehicle: saline
[13] = dose: 200.0 mg/kg/injection, schedule: Q04DX003 (ip), vehicle: saline
[14] = dose: 400.0 mg/kg/injection, schedule: Q04DX003 (ip), vehicle: saline
[15] = dose: 50.0 mg/kg/injection, schedule: Q01DX005 (ip), vehicle: saline
[16] = dose: 100.0 mg/kg/injection, schedule: Q01DX005 (ip), vehicle: saline
[17] = dose: 50.0 mg/kg/injection, schedule: Q01DX005 (ip), vehicle: Klucel (hydroxypropylcellulose) (HPC)
[18] = dose: 100.0 mg/kg/injection, schedule: Q01DX005 (ip), vehicle: Klucel (hydroxypropylcellulose) (HPC)
[19] = dose: 200.0 mg/kg/injection, schedule: Q01DX005 (ip), vehicle: Klucel (hydroxypropylcellulose) (HPC)

[Cl][Sn]([CH2]C[CH2][Sn]([Cl])([c]1ccccc1)[c]1ccccc1)([c]1ccccc1)[c]1ccccc1
T/C (dose: 3.12 mg/kg/injection, schedule: Q01DX005 (ip), vehicle: Klucel (hydroxypropylcellulose) (HPC)): 99 % of control | T/C (dose: 6.25 mg/kg/injection, schedule: Q01DX005 (ip), vehicle: Klucel (hydroxypropylcellulose) (HPC)): 99 % of control | T/C (dose: 12.5 mg/kg/injection, schedule: Q01DX005 (ip), vehicle: Klucel (hydroxypropylcellulose) (HPC)): 98 % of control

COc1cc2c(c(OC)c1OC)-c1ccc(OC)c(=O)cc1C(NC(=O)COc1ccccc1)CC2 (stereo unspecified)
T/C (dose: 0.16 mg/kg/injection, schedule: Q01DX009 (ip), vehicle: Klucel (hydroxypropylcellulose) (HPC)): 120 % of control | T/C (dose: 1.25 mg/kg/injection, schedule: Q01DX009 (ip), vehicle: Klucel (hydroxypropylcellulose) (HPC)): 164 % of control and 171 % of control | T/C (dose: 2.5 mg/kg/injection, schedule: Q01DX009 (ip), vehicle: Klucel (hydroxypropylcellulose) (HPC)): 104 % of control and 207 % of control

CSCC(CO)NC(=O)/C=C/c1c(C)[nH]c(=O)[nH]c1=O (stereo unspecified)
T/C (dose: 50.0 mg/kg/injection, schedule: Q01DX009 (ip), vehicle: other): 86 % of control and 101 % of control | T/C [1]: 89 % of control and 111 % of control | T/C [2]: 94 % of control | T/C (dose: 400.0 mg/kg/injection, schedule: Q01DX009 (ip), vehicle: other): 88 % of control

COC(=O)c1cccc2c(=O)c(CCl)c(-c3ccccc3)sc12
T/C [3]: 93 % of control | T/C [4]: 91 % of control | T/C [5]: 91 % of control

FC(F)(F)c1ccc2[nH]c3c(c2c1)CCCC3
T/C [3]: 102 % of control | T/C [4]: 102 % of control | T/C [5]: 103 % of control

N#CN=[N+]([O-])c1ccccc1Cl
T/C (dose: 3.12 mg/kg/injection, schedule: Q01DX009 (ip), vehicle: Klucel (hydroxypropylcellulose) (HPC)): 100 % of control | T/C (dose: 6.25 mg/kg/injection, schedule: Q01DX009 (ip), vehicle: Klucel (hydroxypropylcellulose) (HPC)): 107 % of control | T/C (dose: 6.25 mg/kg/injection, schedule: Q04DX003 (ip), vehicle: Klucel (hydroxypropylcellulose) (HPC)): 91 % of control | T/C [6]: 109 % of control | T/C (dose: 12.5 mg/kg/injection, schedule: Q04DX003 (ip), vehicle: Klucel (hydroxypropylcellulose) (HPC)): 100 % of control | T/C (dose: 25.0 mg/kg/injection, schedule: Q04DX003 (ip), vehicle: Klucel (hydroxypropylcellulose) (HPC)): 91 % of control

CC12CCC3C(CCC4CC(O)CCC43C)C1CC(C1(O)C(=O)Nc3ccccc31)C2=O (stereo unspecified)
T/C (dose: 25.0 mg/kg/injection, schedule: Q01DX009 (ip), vehicle: saline with Tween-80): 94 % of control | T/C [7]: 88 % of control | T/C [8]: 94 % of control

[NH-]C(C[S-])C(=O)O.[NH-]C(C[S-])C(=O)O.[O]=[Mo]1[O][Mo](=[O])[O]1 (stereo unspecified)
T/C (dose: 50.0 mg/kg/injection, schedule: Q01DX009 (ip), vehicle: saline): 99 % of control | T/C [9]: 90 % of control | T/C [10]: 104 % of control

O=C(c1ccc2c(c1)OCO2)S(=O)(=O)O
T/C (dose: 60.0 mg/kg/injection, schedule: Q01DX005 (ip), vehicle: saline): 102 % of control | T/C (dose: 120.0 mg/kg/injection, schedule: Q01DX005 (ip), vehicle: saline): 96 % of control | T/C (dose: 240.0 mg/kg/injection, schedule: Q01DX005 (ip), vehicle: saline): 97 % of control

Cc1c([N+](=O)[O-])c(=O)[nH]n1C
T/C [7]: 96 % of control | T/C [8]: 88 % of control | T/C [11]: 89 % of control

O=S(=O)(O)Cc1ccc(CS(=O)(=O)O)cc1
T/C (dose: 12.5 mg/kg/injection, schedule: Q04DX002 (ip), vehicle: saline): 93 % of control | T/C (dose: 25.0 mg/kg/injection, schedule: Q04DX002 (ip), vehicle: saline): 102 % of control | T/C (dose: 50.0 mg/kg/injection, schedule: Q04DX002 (ip), vehicle: saline): 98 % of control

CC(=O)OCC(=O)[C@@]1(O)CC[C@H]2[C@@H]3C[C@H](F)C4=CC(=O)CC[C@]4(C)[C@H]3[C@@H](O)C[C@@]21C
T/C [12]: 104 % of control | T/C [13]: 100 % of control | T/C [14]: 95 % of control

CC(C)(C)N1COC(c2ccccc2)C1 (stereo unspecified)
T/C [15]: 106 % of control | T/C [16]: 111 % of control

CC(CN(C)C)OC(=O)C1(c2ccccc2)CCOc2ccccc21 (stereo unspecified)
T/C (dose: 60.0 mg/kg/injection, schedule: Q01DX005 (ip), vehicle: saline with Tween-80): 108 % of control | T/C (dose: 120.0 mg/kg/injection, schedule: Q01DX005 (ip), vehicle: saline with Tween-80): 108 % of control | T/C (dose: 240.0 mg/kg/injection, schedule: Q01DX005 (ip), vehicle: saline with Tween-80): 109 % of control

CCN(CC)CCOC1C=C(C)C2CC1C2(C)C (stereo unspecified)
T/C [15]: 101 % of control | T/C [16]: 101 % of control

CC(C)N(C(=O)COc1ccc(Cl)cc1Cl)c1ccccc1
T/C (dose: 100.0 mg/kg/injection, schedule: Q04DX003 (ip), vehicle: saline with Tween-80): 104 % of control | T/C (dose: 200.0 mg/kg/injection, schedule: Q04DX003 (ip), vehicle: saline with Tween-80): 100 % of control | T/C (dose: 400.0 mg/kg/injection, schedule: Q04DX003 (ip), vehicle: saline with Tween-80): 100 % of control

CN(C)CCOC1OCN(C)CC1(C)C (stereo unspecified)
T/C [7]: 104 % of control | T/C [8]: 111 % of control | T/C [11]: 110 % of control

NC(=S)N/N=C/Cn1ccc(=O)[nH]c1=O
T/C [17]: 100 % of control | T/C [18]: 98 % of control | T/C [19]: 99 % of control

O=c1cc(-c2ccccc2)ss1
T/C [1]: 110 % of control | T/C [2]: 110 % of control

O=C(O)c1ccc(Cn2ccc(=O)[nH]c2=O)cc1
T/C [3]: 100 % of control | T/C [4]: 100 % of control | T/C [5]: 100 % of control

CC(=O)CC(=O)N1CCN(C(=O)CC(C)=O)CC1
T/C [12]: 104 % of control | T/C [13]: 100 % of control | T/C [14]: 100 % of control

Nc1nc(=S)c2ncn(C3CC(O)C(CO)O3)c2[nH]1 (stereo unspecified)
T/C (dose: 10.0 mg/kg/injection, schedule: Q01DX009 (ip), vehicle: Klucel (hydroxypropylcellulose) (HPC)): 118 % of control | T/C (dose: 12.5 mg/kg/injection, schedule: Q01DX005 (ip), vehicle: saline): 118 % of control | T/C (dose: 12.5 mg/kg/injection, schedule: Q01DX005 (iv), vehicle: saline): 101 % of control | T/C [6]: 122 % of control | T/C (dose: 20.0 mg/kg/injection, schedule: Q01DX009 (ip), vehicle: Klucel (hydroxypropylcellulose) (HPC)): 95 % of control | T/C (dose: 25.0 mg/kg/injection, schedule: Q01DX005 (ip), vehicle: saline): 109 % of control | T/C (dose: 25.0 mg/kg/injection, schedule: Q01DX005 (iv), vehicle: saline): 102 % of control | T/C (dose: 25.0 mg/kg/injection, schedule: Q01DX009 (ip), vehicle: saline sonified): 168 % of control | T/C (dose: 25.0 mg/kg/injection, schedule: Q01DX009 (ip), vehicle: saline): 117 % of control | T/C [15]: 109 % of control | T/C (dose: 50.0 mg/kg/injection, schedule: Q01DX005 (iv), vehicle: saline): 102 % of control and 106 % of control | T/C (dose: 50.0 mg/kg/injection, schedule: Q01DX009 (ip), vehicle: Klucel (hydroxypropylcellulose) (HPC)): 118 % of control | T/C [7]: 162 % of control | T/C (dose: 100.0 mg/kg/injection, schedule: Q01DX005 (iv), vehicle: saline): 103 % of control and 108 % of control | T/C (dose: 100.0 mg/kg/injection, schedule: Q01DX009 (ip), vehicle: Klucel (hydroxypropylcellulose) (HPC)): 113 % of control | T/C [9]: 169 % of control | T/C (dose: 200.0 mg/kg/injection, schedule: Q01DX005 (ip), vehicle: saline): 153 % of control | T/C (dose: 200.0 mg/kg/injection, schedule: Q01DX005 (iv), vehicle: saline): 122 % of control | T/C [10]: 114 % of control

Nc1nc2nn(Cc3ccc(Cl)c(Cl)c3)c(-c3ccc(Cl)c(Cl)c3)c2c(=O)[nH]1
T/C [3]: 91 % of control | T/C [4]: 97 % of control | T/C [5]: 88 % of control

COc1c(NC=O)c2c(c([N+](=O)[O-])c1OC)C(=O)OC2
T/C [17]: 102 % of control | T/C [18]: 99 % of control | T/C [19]: 98 % of control

Cc1c[nH]c2nc(C)n(-c3ccccc3F)c(=N)c12
T/C [17]: 99 % of control | T/C [18]: 91 % of control
